# Assay results as given in patent US10738028B2, “Spiro three-membered ring, spiro five-membered ring peptide deformylase inhibitor and use thereof in antibacteria and anti-tumor” (priority 2016, dated 2020).
# Experiments:
# Format in all cases: cell-based
# [1] = system: HCT-116 colorectal cancer cell line; assay: CCK-8 proliferation inhibition; conditions: Homo sapiens, HCT-116, 72 h, concentration of 30 μM; 72 hours; CCK-8; read-out: HCT116 inhibition rate/%
# Summary of the method: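 Cells seeded at 2000 cells/well, cultured overnight at 37 °C, 5% CO2, then exposed to compound (DMSO; control 1‰ DMSO) for 72 h in McCoy's 5A with 10% newborn bovine serum. Viability read with 1:10 diluted CCK-8.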
# [2] = system: methicillin-sensitive Staphylococcus epidermidis (MSSE); assay: MIC, two-fold agar dilution (CLSI), clinical isolates
# Summary of the method: (§1)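 Samples are serially diluted two-fold in agar following CLSI guidance. Plates are then inoculated with the tested strains. The lowest inhibiting concentration is recorded as MIC.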
# [3] = system: Enterococcus faecalis (EFA); assay: as above
# Summary of the method: as §1
# [4] = system: Enterococcus faecium (EFM); assay: as above
# Summary of the method: as §1
# [5] = system: Escherichia coli (including ESBLs, non-ESBLs); assay: as above
# Summary of the method: as §1
# [6] = system: Streptococcus pneoumoniae (SPN); assay: as above
# Summary of the method: as §1
# [7] = system: methicillin-sensitive Staphylococcus aureus (MSSA); assay: as above
# Summary of the method: as §1
# [8] = system: methicillin-resistant Staphylococcus epidermidis (MRSE); assay: as above
# Summary of the method: as §1
# [9] = system: Moraxella catarrhalis (BCA); assay: as above
# Summary of the method: as §1
# [10] = system: methicillin-resistant Staphylococcus aureus (MRSA); assay: as above
# Summary of the method: as §1
smiles,measurement,setting,value
"CCCC[C@H](CC(=O)NO)C(=O)N1CC2(CC2)C[C@H]1C(=O)Nc1cnn(CCN(C)C)c1 [Example 52, (S)—N-(1-(2-(dimethylamino)ethyl)-1H-pyrazol-4-yl)-5-((R)-2-(2-(hydroxyamino)-2-oxoethyl)hexanoyl)-5-spiro[2.4]heptane-6-carboxamide]",inhibition at 30 µM,[1],-1%
same,"Anti-bacterial activity (MIC), strain MSSE 15-3",[2]; clinical isolate MSSE 15-3,> 32 µg/mL
same,"Anti-bacterial activity (MIC), strain MSSE 15-4",[2]; clinical isolate MSSE 15-4,> 32 µg/mL
same,"Anti-bacterial activity (MIC), strain MSSE 15-5",[2]; clinical isolate MSSE 15-5,> 32 µg/mL
same,"Anti-bacterial activity (MIC), strain MSSE 15-6",[2]; clinical isolate MSSE 15-6,> 32 µg/mL
same,"Anti-bacterial activity (MIC), strain EFA 15-1",[3]; clinical isolate EFA 15-1,> 32 µg/mL
same,"Anti-bacterial activity (MIC), strain EFA 15-2",[3]; clinical isolate EFA 15-2,> 32 µg/mL
same,"Anti-bacterial activity (MIC), strain EFA 15-3",[3]; clinical isolate EFA 15-3,> 32 µg/mL
same,"Anti-bacterial activity (MIC), strain EFA 15-4",[3]; clinical isolate EFA 15-4,> 32 µg/mL
same,"Anti-bacterial activity (MIC), strain EFA 15-5",[3]; clinical isolate EFA 15-5,> 32 µg/mL
same,"Anti-bacterial activity (MIC), strain EFA 15-6",[3]; clinical isolate EFA 15-6,> 32 µg/mL
same,"Anti-bacterial activity (MIC), strain EFA 15-9",[3]; clinical isolate EFA 15-9,> 32 µg/mL
same,"Anti-bacterial activity (MIC), strain EFM 15-1",[4]; clinical isolate EFM 15-1,> 32 µg/mL
same,"Anti-bacterial activity (MIC), strain EFM 15-2",[4]; clinical isolate EFM 15-2,> 32 µg/mL
same,"Anti-bacterial activity (MIC), strain EFM 15-3",[4]; clinical isolate EFM 15-3,> 32 µg/mL
same,"Anti-bacterial activity (MIC), strain EFM 15-4",[4]; clinical isolate EFM 15-4,> 32 µg/mL
same,"Anti-bacterial activity (MIC), strain EFM 15-5",[4]; clinical isolate EFM 15-5,16 µg/mL
same,"Anti-bacterial activity (MIC), strain EFM 15-6",[4]; clinical isolate EFM 15-6,16 µg/mL
same,"Anti-bacterial activity (MIC), strain ECO+ 15-1",[5]; clinical isolate ECO+ 15-1,> 32 µg/mL
same,"Anti-bacterial activity (MIC), strain ECO+ 15-2",[5]; clinical isolate ECO+ 15-2,> 32 µg/mL
same,"Anti-bacterial activity (MIC), strain ECO+ 15-3",[5]; clinical isolate ECO+ 15-3,> 32 µg/mL
same,"Anti-bacterial activity (MIC), strain ECO+ 15-4",[5]; clinical isolate ECO+ 15-4,> 32 µg/mL
same,"Anti-bacterial activity (MIC), strain ECO− 15-1",[5]; clinical isolate ECO− 15-1,> 32 µg/mL
same,"Anti-bacterial activity (MIC), strain ECO− 15-2",[5]; clinical isolate ECO− 15-2,> 32 µg/mL
same,"Anti-bacterial activity (MIC), strain ECO− 15-3",[5]; clinical isolate ECO− 15-3,> 32 µg/mL
same,"Anti-bacterial activity (MIC), strain ECO− 15-4",[5]; clinical isolate ECO− 15-4,> 32 µg/mL
same,"Anti-bacterial activity (MIC), strain SPN 16-2",[6]; clinical isolate SPN 16-2,8 µg/mL
same,"Anti-bacterial activity (MIC), strain SPN 16-4",[6]; clinical isolate SPN 16-4,8 µg/mL
same,"Anti-bacterial activity (MIC), strain MSSA 15-3",[7]; clinical isolate MSSA 15-3,> 32 µg/mL
same,"Anti-bacterial activity (MIC), strain MSSA 15-4",[7]; clinical isolate MSSA 15-4,> 32 µg/mL
same,"Anti-bacterial activity (MIC), strain MSSA 15-5",[7]; clinical isolate MSSA 15-5,> 32 µg/mL
same,"Anti-bacterial activity (MIC), strain MSSA 15-6",[7]; clinical isolate MSSA 15-6,> 32 µg/mL
same,"Anti-bacterial activity (MIC), strain MRSE 15-1",[8]; clinical isolate MRSE 15-1,> 32 µg/mL
same,"Anti-bacterial activity (MIC), strain MRSE 15-2",[8]; clinical isolate MRSE 15-2,> 32 µg/mL
same,"Anti-bacterial activity (MIC), strain MRSE 15-3",[8]; clinical isolate MRSE 15-3,> 32 µg/mL
same,"Anti-bacterial activity (MIC), strain MRSE 15-7",[8]; clinical isolate MRSE 15-7,> 32 µg/mL
same,"Anti-bacterial activity (MIC), strain BCA 14-1",[9]; clinical isolate BCA 14-1,> 32 µg/mL
same,"Anti-bacterial activity (MIC), strain BCA 14-4",[9]; clinical isolate BCA 14-4,> 32 µg/mL
same,"Anti-bacterial activity (MIC), strain BCA 14-5",[9]; clinical isolate BCA 14-5,> 32 µg/mL
same,"Anti-bacterial activity (MIC), strain BCA 14-6",[9]; clinical isolate BCA 14-6,> 32 µg/mL
same,"Anti-bacterial activity (MIC), strain BCA 14-7",[9]; clinical isolate BCA 14-7,> 32 µg/mL
same,"Anti-bacterial activity (MIC), strain BCA 14-8",[9]; clinical isolate BCA 14-8,> 32 µg/mL
same,"Anti-bacterial activity (MIC), strain BCA 14-10",[9]; clinical isolate BCA 14-10,> 32 µg/mL
same,"Anti-bacterial activity (MIC), strain MRSA 15-1",[10]; clinical isolate MRSA 15-1,> 32 µg/mL
same,"Anti-bacterial activity (MIC), strain MRSA 15-2",[10]; clinical isolate MRSA 15-2,> 32 µg/mL
same,"Anti-bacterial activity (MIC), strain MRSA 15-3",[10]; clinical isolate MRSA 15-3,> 32 µg/mL
same,"Anti-bacterial activity (MIC), strain MRSA 15-4",[10]; clinical isolate MRSA 15-4,> 32 µg/mL
